PMC7570983, “Synthesis of Novel 2-(Isopropylamino)thiazol-4(5H)-one Derivatives and Their Inhibitory Activity of 11β-HSD1 and 11β-HSD2 in Aspect of Carcinogenesis Prevention” (Molecules, 2020)

Target: T1, 11β-HSD2 (Homo sapiens, UniProt P80365)
T1 construct: gene HSD11B2
T1 sequence (P80365 1-405): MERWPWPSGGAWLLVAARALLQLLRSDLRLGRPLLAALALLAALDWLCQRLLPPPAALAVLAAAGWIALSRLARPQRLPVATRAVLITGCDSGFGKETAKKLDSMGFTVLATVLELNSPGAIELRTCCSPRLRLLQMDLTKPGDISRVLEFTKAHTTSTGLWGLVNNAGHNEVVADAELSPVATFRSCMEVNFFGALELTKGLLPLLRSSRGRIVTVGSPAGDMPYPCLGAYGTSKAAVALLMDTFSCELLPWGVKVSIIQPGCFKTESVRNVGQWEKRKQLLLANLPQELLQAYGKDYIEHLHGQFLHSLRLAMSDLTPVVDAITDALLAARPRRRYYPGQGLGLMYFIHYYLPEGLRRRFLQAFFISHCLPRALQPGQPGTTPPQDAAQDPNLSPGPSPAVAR
Test: % inhibition at […], human kidney microsomes, cortisol ELISA
Assay type: cell-based
Settings: read-out: % of 11β-HSD2 Inhibition 10 μM/IC50 [μM] ^a

inhibition at 10 µM: 47.1 ± 2.51%
Compound: CCC1SC(NC(C)C)=NC1=O (stereo not shown) [3b, 5-Ethyl-2-(isopropylamino)thiazol-4(5H)-one]
